Assays:
[1] = In vivo electrokinetic infusion via hollow fiber probe, volume of distribution; details: rat striatum, 25 μA, 45 minutes
From the text: In the experiments described below, the distal end of the hollow fiber catheter was a hollow fiber having a 280 μm inside and 360 μm outside diameter, and a length of 3-4 mm (724). A 10- or 15-cm long fused silica catheter ([…] and 670 μm outside diameters, 720) directs fluid to the hollow fiber probe. The 100 μm inside diameter infusion catheter 720 was filled with the fluorophore solution of interest, as detailed below, in a glucose-free HEPES-buffered salt solution (GF-HBSS), containing in mM: 143.4 NaCl, 5 HEPES, 5.4 KCl, 1.2 MgSO4, 1.2 NaH2PO4, and 2.0 CaCl2. The probe was placed in a vial containing the same solution (704) through a septum. […]
(§1) After the electrokinetic infusion period, the rats underwent rapid transcardial perfusion with 250 mL of 8% cold paraformaldehyde in phosphate buffer solution. […] Vibratome sectioning was quantitative, with no discarded tissue between slices with a visible fluorophore spot. […] The 200 μm thick coronal slices were mounted onto glass slides and imaged with an inverted fluorescence microscope.
The volumes of distribution from the infusions were determined by measuring the fluorescence intensities in each coronal slice. The fluorescent area in each image was determined by counting pixels above a threshold value dictated by the noise level in the background (nonfluorescent portion of the image). […]

[2] = In vivo electrokinetic infusion via open tube catheter, volume of distribution; details: rat thalamus, 25.0 μA for 45 minutes
Method: Male Sprague-Dawley rats, with weights ranging from 260 to 290 g, were anesthetized with isoflurane, and wrapped in a 37° C. homeothermic blanket. An incisor bar was set at 0 mm at the interaural line. Rats underwent aseptic stereotactic surgery, whereby bilateral craniotomies were made to position an infusion catheter and counter catheter into the thalami bilaterally (from bregma: 4.0 mm lateral, 1.3 mm posterior, and 5.0 mm below the dura) for volumetric analysis. The capillaries were also implanted into the hippocampi bilaterally (from bregma: 4.0 mm lateral, 1.3 mm posterior, and 2.5 mm below the dura). […]
as §1, with “PBS.” for “phosphate buffer solution.”, “300” for “200”, “microscope. Image sequences were acquired and the fluorescent intensity was measured.” for “microscope.”
The volumes of distribution from the infusions were determined by evaluating the fluorescence intensities amongst the coronal tissue slices. The overall maximum fluorescence intensity (I0) at the infusion catheter implantation site was determined for each rat. […]

[3] = Electrophoretic mobility of infusates; type: physicochemical; details: N = 3
From the text: As noted above, three solutes of varying molecular weight and electrophoretic mobilities were utilized for in vivo infusions. BODIPY labeled 10 kDa dextran (B10) and TR70 were selected because of their dissimilar molecular weights, their ability to be resolved spectroscopically, and their small electrophoretic mobilities, as shown in Table 1 below (Vd at 10% of I0 calculated as in paragraph 25). The electrophoretic mobility is the ratio of the velocity that a molecule adopts in the presence of an electric field of a particular magnitude. For comparison, the electroosmotic mobility is the velocity that the fluid adopts in the presence of an electric field. The […] is directly proportional to the magnitude of the zeta potential governing the electroosmotic flow which we estimate to be −22.8 mV (Guy, Y. et al., “Determination of zeta-potential in rat organotypic hippocampal cultures.” Biophysical Journal, (2008) 94: 4561-9; Guy et al., “Determination of Zeta-Potential and Tortuosity in Rat Organotypic Hippocampal Cultures from Electroosmotic Velocity Measurements under Feedback Control.” Anal. Chem. (2009) 81:3001-7, both of which are hereby incorporated by reference). The electroosmotic mobility of the extracellular fluid in brain is 1.7×10^−8 m^2/Vs. This is much larger than the electrophoretic mobilities of the two fluorescent dextrans in Table 1. […]

## [Ru+2].c1ccc(-c2ccccn2)nc1.c1ccc(-c2ccccn2)nc1.c1ccc(-c2ccccn2)nc1 [Ru(bpy)3^2+, tris(2,2′-bipyridyl)ruthenium(II)]
[1]
  volume of distribution (fluorescent volume): 9.0 µL
[2]; calculated
  Vd at 10% of I0: 260 µL
[2]; open tube catheter, mean±SEM
  Vd at 25% of I0: 13.0 ± 2.0 µL
[3]
  Electrophoretic Mobility (μep): 25.86 ± 0.02 10^−9 m^2/Vs

Source: patent publication US11471674B2, “Electroosmotic convection-enhanced delivery system” (University of Pittsburgh—Of the Commonwealth System of …, priority 2012, dated 2022)
